# From patent US20230114728A1 (Venatorx Pharmaceuticals, Inc., priority 2019, published 2023)
# Where two headings read alike, the source gives them in different places.
# How the values were obtained:
# [1] = tested on: P. aeruginosa (ΔmexAB-oprM); assay: Broth microdilution MIC in CAMHB; format: cell-based; settings: Pseudomonas aeruginosa, read-out: Minimum Inhibitory Concentration, P. aeruginosa ΔmexAB-OprM
# Protocol: (§1) Example III: In Vitro Antibacterial Assays
# (§2) To determine the ability of test compounds to inhibit the growth of bacterial strains, classic cell based broth microdilution minimum inhibitory concentration (MIC) assays were employed. MIC assays are performed according to CLSI methods except where otherwise noted (CLSI, 2018 and CLSI, 2019). The reference type strain E. coli ATCC 25922; the wild-type parent strain E. coli AG100; the hyper-permeable E. coli 901C and E. coli D22; and the E. coli AG100A strain lacking the acrAB efflux pump encoding genes were used to determine the ability of the PBP inhibitors to penetrate the outer membrane of gram-negative bacteria and inhibit bacterial growth. […] The P. aeruginosa ATCC 27853 and A. baumannii ATCC 19606, along with the hyper-permeable P. aeruginosa ATCC 35151 and an engineered efflux pump-compromised strain of P. aeruginosa (ΔmexAB-oprM) were used to determine the ability of PBP inhibitors to penetrate the outer membrane of P. aeruginosa and A. baumannii and assess antibacterial activity against these important gram-negative organisms.
# (§3) Briefly, cryo-preserved bacterial cultures of challenge strains are streaked for isolation on appropriate agar medium, in this case cation-adjusted Mueller Hinton agar. Following incubation to allow growth of the colonies, plates are sealed with parafilm and stored refrigerated for up to two weeks. For preparation of assay inoculum and to ensure low variability, at least 5 colonies are picked from the agar plates with an inoculating loop and aseptically transferred to a culture tube containing 3 mL of cation-adjusted Mueller Hinton broth (CAMHB). The broth culture is grown for 3-5 hours at 37° C. with shaking at 200 rpm. Meanwhile, 2-fold serial dilutions of test compounds are conducted in a 96-well plate with a final volume of 75 μL per well at 2-fold the final desired concentration. After the dilution plates are set up the growing cultures are then diluted in a cuvette containing CAMHB and the optical density is measured at 600 nm. The inoculum is diluted such that 75 μL of this culture in CAMHB results in a starting bacterial concentration of 2-8×10^5 CFU/mL when added to the dilution plates. The plates are incubated for 16-20 hours for Enterobacteriaceae and Pseudomonas and 20-24 hours for Acinetobacter at 37° C. The MIC values are read visually as the lowest concentration well with no bacterial growth.
# E. coli D22 = assay: Broth microdilution MIC in CAMHB; format: cell-based; settings: Escherichia coli, MHB, read-out: Minimum Inhibitory Concentration, E. coli D22
# Protocol: as §1, §2, §3
# [2] = tested on: K. pneumoniae SI-117 producing VIM-1; assay: Broth microdilution MIC in CAMHB; format: cell-based; settings: Klebsiella pneumoniae, read-out: Minimum Inhibitory Concentration, K. pneumoniae SI-117
# Protocol: as §1, §2, §3
# E. coli AG100A = assay: Broth microdilution MIC in CAMHB; format: cell-based; settings: Escherichia coli, read-out: Minimum Inhibitory Concentration, E. coli AG100A
# Protocol: as §1, §2, §3
# [3] = tested on: K. pneumoniae UMM producing SHV-5 and KPC-2; assay: Broth microdilution MIC in CAMHB; format: cell-based; settings: Klebsiella pneumoniae, read-out: Minimum Inhibitory Concentration, K. pneumoniae UMM
# Protocol: as §1, §2, §3
# E. coli ATCC 25922 = assay: Broth microdilution MIC in CAMHB; format: cell-based
# Protocol: as §1, §2, §3
# [4] = tested on: K. pneumoniae 848844 producing SHV-11 and KPC-2; assay: Broth microdilution MIC in CAMHB; format: cell-based; settings: Klebsiella pneumoniae, read-out: Minimum Inhibitory Concentration, K. pneumoniae 848844
# Protocol: as §1, §2, §3
# A. baumannii ATCC 19606 = assay: Broth microdilution MIC in CAMHB; format: cell-based; settings: Acinetobacter baumannii, ATCC19606; MHB; read-out: Minimum Inhibitory Concentration, A. baumannii ATCC 19606
# Protocol: as §1, §2, §3
# P. aeruginosa ATCC 35151 = assay: Broth microdilution MIC in CAMHB; format: cell-based; settings: Pseudomonas aeruginosa, ATCC35151; MHB; hyper-permeable strain; read-out: Minimum Inhibitory Concentration, P. aeruginosa ATCC 35151
# Protocol: as §1, §2, §3
# E. coli 901C = assay: Broth microdilution MIC in CAMHB; format: cell-based; settings: Escherichia coli, MHB, read-out: Minimum Inhibitory Concentration, E. coli 901C
# Protocol: as §1, §2, §3
# E. coli AG100 = assay: Broth microdilution MIC in CAMHB; format: cell-based; settings: Escherichia coli, MHB, read-out: Minimum Inhibitory Concentration, E. coli AG100
# Protocol: as §1, §2, §3
# P. aeruginosa ATCC 27853 = assay: Broth microdilution MIC in CAMHB; format: cell-based; settings: Pseudomonas aeruginosa, ATCC27853; MHB; read-out: Minimum Inhibitory Concentration, P. aeruginosa ATCC 27853
# Protocol: as §1, §2, §3
# E. coli K12 PBP3 = molecular target: T1, E. coli K12 PBP3 (Escherichia coli, UniProt P0AD68); assay: biochemical; format: binding
# T1 construct: made in house
# T1 sequence (P0AD68 1-577): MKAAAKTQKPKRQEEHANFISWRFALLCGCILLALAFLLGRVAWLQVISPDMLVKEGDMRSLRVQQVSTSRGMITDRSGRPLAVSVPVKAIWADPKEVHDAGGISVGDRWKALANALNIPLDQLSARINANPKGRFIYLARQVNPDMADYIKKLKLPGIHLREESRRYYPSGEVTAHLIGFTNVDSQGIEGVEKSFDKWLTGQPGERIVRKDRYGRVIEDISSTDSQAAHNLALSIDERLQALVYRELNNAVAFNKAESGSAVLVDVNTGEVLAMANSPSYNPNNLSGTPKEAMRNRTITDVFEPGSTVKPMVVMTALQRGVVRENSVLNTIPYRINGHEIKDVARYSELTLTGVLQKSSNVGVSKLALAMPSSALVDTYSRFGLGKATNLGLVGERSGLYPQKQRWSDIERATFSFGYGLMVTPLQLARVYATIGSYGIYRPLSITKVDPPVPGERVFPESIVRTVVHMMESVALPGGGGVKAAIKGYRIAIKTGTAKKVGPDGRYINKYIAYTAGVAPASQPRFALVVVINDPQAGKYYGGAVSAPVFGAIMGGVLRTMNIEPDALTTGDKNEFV
# From the text: Example I: Experimental Method for Penicillin-Binding Protein Binding Assays with Bocillin-FL Via Fluorescence Polarization
# To determine the ability of boronic acid-based test PBP inhibitors to bind Penicillin Binding Proteins (PBPs), Bocillin-FL (fluorescently-labeled penicillin V; ThermoFisher Scientific) was used in a fluorescence polarization (FP) competition binding assay to assess inhibitor binding to PBP2, PBP3 or PBP4 from Escherichia coli (K12), PBP3 from Pseudomonas aeruginosa (PA01), PBP1a, PBP2 and PBP3 from Acinetobacter baumannii (ATCC 19606), and PBP2 from Neiserria gonorrheae (FA19). PBPs were cloned and purified as described previously (E. coli PBPs, King, D. T, et al., ACS Infectious Diseases 2015, 1, 175-184; P. aeruginosa PBP3, Han et. al., PNAS 2010, 107 (51), 22002-22007; A. baumannii PBPs, Penwell et. al., Antimicrob. Agents Chemother. 2015, 59 (3), 1680-1689; N. gonorrhoeae PBP2, Singh et. al., J Biol. Chem. 2019, 294 (38), 14020-14032). To establish assay conditions for competition binding, enzyme titration/saturation binding experiments were initially performed. Bocillin-FL was prepared at 0.2 μM in a buffer comprised of 50 mM Hepes (pH 8.0), 300 mM NaCl and 5% (v/v) glycerol for reactions with E. coli, P. aeruginosa and N. gonorrhoeae PBPs, and 25 mM Tris (pH 8.0), 200 mM NaCl and 10% (v/v) glycerol and 0.005% (v/v) Tween 20 for reactions with A. baumannii PBPs. Saturation binding was performed by mixing 40 μl of PBP solutions ranging in concentrations from 0-24 μM with 40 μl of the 0.2 μM Bocillin-FL solution, in individual wells of a black 384-well microplate. FP was measured immediately upon mixing (Excitation, 490 nm; Emission, 520 nm; g-factor, 0.96), using a Cytation3 (BioTek) microplate reader and measured continuously for up to 120 minutes. […] The competition binding assay (80 μl final volume) was validated using beta-lactams and PBPs at final concentrations of: 1.5 μM, E. coli PBP3; 0.75 μM, P. aeruginosa PBP3; 1 μM A. baumannii PBP1a; 2.5 μM A. baumannii PBP2; 0.2 μM A. baumannii PBP3; and […] N. gonorrhoeae PBP2. Bocillin-FL was at 0.1 μM (0.05 μM with A. baumannii PBP1a) and beta-lactam concentrations ranged from 0-1000 μM. […] Bocillin-FL was added and the FP immediately measured for up to 60 minutes (90 minutes for E. coli PBP2). […] The beta-lactam potency was reported as the concentration of beta-lactam required to reduce the amount of PBP bound-Bocillin-FL by 50% (EC50). […] Binding assays for boronic acid PBP inhibitors were performed in an identical fashion for the respective PBPs
# P. aeruginosa PBP3 = molecular target: T2, P. aeruginosa PBP3 (Pseudomonas aeruginosa, UniProt G3XD46); assay: Bocillin-FL fluorescence polarization competition binding assay, P. aeruginosa PBP3; settings: fluorescence polarization competition binding assay using Bocillin-FL
# T2 construct: made in house
# T2 sequence (G3XD46 whole entry): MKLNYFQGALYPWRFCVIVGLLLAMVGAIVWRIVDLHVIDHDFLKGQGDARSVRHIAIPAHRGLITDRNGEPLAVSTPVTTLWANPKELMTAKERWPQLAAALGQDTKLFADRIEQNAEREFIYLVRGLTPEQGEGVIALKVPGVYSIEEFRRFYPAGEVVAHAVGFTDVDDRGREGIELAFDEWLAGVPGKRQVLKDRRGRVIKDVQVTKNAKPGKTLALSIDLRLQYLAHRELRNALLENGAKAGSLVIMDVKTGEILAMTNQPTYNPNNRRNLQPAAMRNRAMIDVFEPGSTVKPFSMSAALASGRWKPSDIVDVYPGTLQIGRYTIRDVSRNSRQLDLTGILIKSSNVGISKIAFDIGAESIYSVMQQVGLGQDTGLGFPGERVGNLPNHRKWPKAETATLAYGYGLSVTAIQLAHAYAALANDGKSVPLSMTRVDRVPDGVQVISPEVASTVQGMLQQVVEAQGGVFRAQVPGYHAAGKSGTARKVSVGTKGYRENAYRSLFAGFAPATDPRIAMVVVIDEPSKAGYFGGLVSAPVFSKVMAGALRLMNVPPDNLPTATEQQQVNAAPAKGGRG
# In short: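 Inhibitor competition with Bocillin-FL for P. aeruginosa PBP3 was followed by fluorescence polarization on a Cytation3 (BioTek) reader, using g-factor 0.96, 490 nm excitation and 520 nm emission. The enzyme was at 0.75 μM and the probe at 0.1 μM in Hepes/NaCl/glycerol buffer, 80 μl per well. FP was recorded immediately after probe addition for up to 60 minutes. Potency was expressed as EC50, the concentration that reduces bound probe by 50%.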
# [5] = Escherichia coli, ATCC25922; E. coli ATCC 25922; MHB; read-out: Minimum Inhibitory Concentration, E. coli 25922
# [6] = E. coli AG100 (wild-type parent)
Compound,MIC [1],MIC (E. coli D22; E. coli D22 (hyper-permeable)),MIC [2],MIC (E. coli AG100A),MIC [3],MIC (E. coli ATCC 25922; [5]),MIC [4],MIC (A. baumannii ATCC 19606),MIC (P. aeruginosa ATCC 35151),MIC (E. coli 901C; E. coli 901C (hyper-permeable)),MIC (E. coli AG100; [6]),MIC (P. aeruginosa ATCC 27853),EC50 (E. coli K12 PBP3),P. aeruginosa PBP3 Potency (P. aeruginosa PBP3),MIC (E. coli D22; hyper-permeable E. coli D22),"MIC (E. coli ATCC 25922; Escherichia coli, ATCC25922; MHB; E. coli ATCC 25922; read-out: Minimum Inhibitory Concentration, E. coli 25922)",MIC (E. coli 901C; hyper-permeable E. coli 901C),MIC (E. coli AG100; wild-type parent strain E. coli AG100)
"O=C(O)c1cccc2c1OB(O)[C@@H](NC(=O)[C@H](NC(=O)N1CCN(CC(F)(F)F)C(=O)C1=O)c1c(F)cc(O)cc1F)C2 (single isomer, unassigned) [Example 215]",32 to 64 µg/mL,2 to 4 µg/mL,32 to 64 µg/mL,2 to 4 µg/mL,32 to 64 µg/mL,32 to 64 µg/mL,> 128 µg/mL,> 128 µg/mL,8 to 16 µg/mL,< 0.25 µg/mL,32 to 64 µg/mL,> 128 µg/mL,< 30 µM,C (C represents a potency between 10 and 30 μM),–,–,–,–
"NS(=O)(=O)Nc1cccc([C@H](NC(=O)N2CCN(CC(F)(F)F)C(=O)C2=O)C(=O)N[C@H]2Cc3cccc(C(=O)O)c3OB2O)c1 (single isomer, unassigned) [Example 216]",32 to 64 µg/mL,8 to 16 µg/mL,> 128 µg/mL,32 to 64 µg/mL,> 128 µg/mL,> 128 µg/mL,> 128 µg/mL,> 128 µg/mL,8 to 16 µg/mL,2 to 4 µg/mL,> 128 µg/mL,> 128 µg/mL,30 to 500 µM,C (C represents a potency between 10 and 30 μM),–,–,–,–
"NS(=O)(=O)Nc1cccc([C@@H](NC(=O)N2CCN(CC(F)(F)F)C(=O)C2=O)C(=O)N[C@H]2Cc3cccc(C(=O)O)c3OB2O)c1 (single isomer, unassigned) [Example 217]",8 to 16 µg/mL,2 to 4 µg/mL,> 128 µg/mL,8 to 16 µg/mL,32 to 64 µg/mL,32 to 64 µg/mL,> 128 µg/mL,> 128 µg/mL,2 to 4 µg/mL,0.5 to 1 µg/mL,32 to 64 µg/mL,> 128 µg/mL,< 30 µM,D (D represents a potency <10 μM),–,–,–,–
"NS(=O)(=O)Nc1ccc(F)c([C@H](NC(=O)N2CCN(CC(F)(F)F)C(=O)C2=O)C(=O)N[C@H]2Cc3cccc(C(=O)O)c3OB2O)c1 (single isomer, unassigned) [Example 218]",32 to 64 µg/mL,8 to 16 µg/mL,> 128 µg/mL,32 to 64 µg/mL,> 128 µg/mL,> 128 µg/mL,> 128 µg/mL,> 128 µg/mL,8 to 16 µg/mL,0.5 to 1 µg/mL,> 128 µg/mL,> 128 µg/mL,30 to 500 µM,C (C represents a potency between 10 and 30 μM),–,–,–,–
"C[C@H]1CN(CCCN)C(=O)C(=O)N1C(=O)NC(C(=O)N[C@H]1Cc2cccc(C(=O)O)c2OB1O)c1ccc(O)c(F)c1F (stereo partly drawn) [Example 243, (3R)-3-(2-((S)-4-(3-aminopropyl)-6-methyl-2,3-dioxopiperazine-1-carboxamido)-2-(2,3-difluoro-4-hydroxyphenyl)acetamido)-2-hydroxy-3,4-dihydro-2H-benzo[e][1,2]oxaborinine-8-carboxylic acid]",8 to 16 µg/mL,–,2 to 4 µg/mL,32 to 64 µg/mL,0.5 to 1 µg/mL,–,32 to 64 µg/mL,> 128 µg/mL,2 to 4 µg/mL,–,–,> 128 µg/mL,–,D (D represents a potency <10 μM),32 to 64 µg/mL,32 to 64 µg/mL,> 128 µg/mL,32 to 64 µg/mL
